Laboratory results as given in patent publication US9210928B2, “Plant development control composition” (Syngenta Crop Protection, LLC, priority 2008, dated 2015).
“Also recorded” adds a separate entry of the source.

Assays:
[1] = target: T1, LeNCED1 (Solanum lycopersicum, UniProt O24023); experiment: In vitro NCED enzyme assay (recombinant LeNCED1 cell-free extract, HPLC, 9′-cis-neoxanthin substrate); assay type: biochemical, tomato
T1 construct: made in house; host or cells: E. coli Rosetta (DE3); crude cell-free extract
T1 sequence (O24023 17-605): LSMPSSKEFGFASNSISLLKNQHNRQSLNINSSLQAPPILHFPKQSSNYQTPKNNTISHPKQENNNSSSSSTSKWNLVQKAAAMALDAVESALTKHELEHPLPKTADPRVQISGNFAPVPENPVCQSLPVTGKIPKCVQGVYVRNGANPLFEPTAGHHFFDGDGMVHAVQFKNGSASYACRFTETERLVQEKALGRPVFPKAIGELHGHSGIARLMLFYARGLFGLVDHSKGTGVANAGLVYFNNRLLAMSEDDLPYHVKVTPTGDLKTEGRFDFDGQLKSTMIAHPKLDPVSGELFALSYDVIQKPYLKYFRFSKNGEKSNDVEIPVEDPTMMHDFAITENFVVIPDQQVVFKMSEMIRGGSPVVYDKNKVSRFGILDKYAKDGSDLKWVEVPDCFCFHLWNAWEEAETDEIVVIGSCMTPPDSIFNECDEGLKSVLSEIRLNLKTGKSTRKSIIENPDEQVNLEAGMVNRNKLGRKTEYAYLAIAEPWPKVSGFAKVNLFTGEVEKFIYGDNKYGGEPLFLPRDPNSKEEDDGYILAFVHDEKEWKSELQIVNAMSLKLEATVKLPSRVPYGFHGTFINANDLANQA
Description: In vitro NCED enzyme assay—We over-expressed LeNCED1 in E. coli, as an N-terminal His6-fusion protein (supplemental methods). Cell-free extract containing recombinant LeNCED1 was prepared in 100 mM bis-tris buffer (pH 6.7). 15 μl extract was pre-activated by addition of iron(II) sulphate (20 mM, 1 μl) and ascorbic acid (20 mM, 1 μl) on ice for 2 min, prior to use. This aliquot of enzyme was then added to an assay (150 μl total volume) containing 100 mM bis-tris buffer (pH 6.7), 0.05% v/v Triton X-100, 1.0 mg/ml catalase, and 3 μg 9′-cis-neoxanthin. The 9′-cis-neoxanthin substrate was prepared as described in supplemental methods. The enzyme assay was incubated for 15 min in the dark at 20° C. Water (700 μl) was then added, and the products extracted with ethyl acetate (3×1 ml). The organic solvent was removed at reduced pressure, the residue was dissolved in methanol (200 μl), and then 100 μl was injected onto a Phenomenex C18 reverse phase HPLC column, and a gradient of 5-10% methanol in acetonitrile/0.05% triethylamine was applied at 0.5 ml/min over 20 min, detecting at 440 nm. NCED inhibition assays contained 1-100 μM inhibitor; inhibition was calculated from the product formation after 15 min, compared to a control assay with no inhibitor present.
For the production of cell-free extracts of LeCCD1a and LeNCED1, cultures were grown to an OD of 0.6 at 37° C., then isopropyl β-D-1-thiogalactopyranoside (IPTG) was added to 0.2 mM and the cultures grown overnight at 20° C. The cells (200 ml cultures) were harvested by centrifugation (5000 rpm, 10 min) and the pellet re-suspended in 4 ml PBS, 0.1% Triton-X 100. Lysozyme was added to a final concentration of 25 μg ml^−1 and the solution incubated at room temperature for 15 min before sonication (3×30 s at 18Ω) on ice. The lysate was then centrifuged (13000 rpm, 15 min, 4° C.) and the supernatant used for the assay.
Specificity of inhibition in vitro for tomato genes LeNCED1 and LeCCD1a—In order to screen the inhibitors against enzymes which cleave carotenoids at the 9,10 position, we used the recombinant tomato LeCCD1a protein (44), because this type of enzyme can be studied using an in vitro colourimetric assay with β-apo-8′-carotenal as substrate (37). To establish the specificity of the inhibitors, they were also tested against the tomato LeNCED1 recombinant protein which cleaves 9-cis carotenoids at the 11,12 position (45). For this enzyme, the cleavage reaction was monitored by C18 reverse phase HPLC, using 9′-cis-neoxanthin as substrate.

[2] = test system: LeCCD1a; experiment: In vivo enzyme assay in β-carotene-producing E. coli expressing LeCCD1a; assay type: cell-based, Solanum lycopersicum; details: 100 μM inhibitor, 16 hours; FIG. 4
Source text: In vivo enzyme assays in E. coli—The genes of interest (supplemental Table S1) were cloned into the vector pET30c (Novagen) fused directly to the initial ATG codon with no tag, or into pGEX-4T such that the gene was fused to an N-terminal GST tag. All genes were full length except AtCCD7, which had the chloroplast signal sequence removed (supplemental methods). […] Therefore, this construct was used in subsequent assays. The plasmids were transferred to the E. coli expression strain BL21(DE3), harbouring pAC-BETA (38), and therefore producing β-carotene.
For each inhibitor assay, 2.5 ml LB media with the appropriate antibiotics (25 μg ml^−1 chloramphenicol and 50 μg ml^−1 kanamycin or 100 μg ml^−1 ampicillin) and 2.5 μM IPTG, was prepared. Inhibitors (0.1 M in 100% ethanol) were added to the media to a final concentration of 100 μM. The media was then inoculated with 0.25 ml of overnight culture (grown at 37° C. with the appropriate antibiotics) and incubated with shaking (200 rpm) at 28° C. for 16 hours. One ml of culture was harvested by microcentrifugation and resuspended thoroughly in 1 ml ethanol containing 0.2% Triton X-100. After vortexing, the extract was incubated at room temperature in the dark for 3 hours, again vortexed and then spun in a microcentrifuge for 5 min at 13000 rpm. The supernatant was removed and the O.D.453-O.D.550 was measured. The amount of β-carotene was calculated using a standard curve generated from a dilution series of β-carotene (Sigma) in ethanol with 0.2% Triton X-100; the absolute levels of β-carotene are shown in FIG. 8. The relative inhibition was calculated by the equation: (Ci−Cc)/(C1−Cc)×100, where Ci is the carotenoid level with inhibitor and CCD present, Cc is the level with CCD but without the inhibitor and C1 is the level in a strain where lacZ is expressed instead of the CCD, and no inhibitor is present. Thus the increase in β-carotene due to inhibition of the CCD […] was expressed relative to the maximum possible β-carotene content when CCD is absent (C1−Cc).
In vivo activity of inhibitors applied to E. coli strains expressing CCDs—Coloured E. coli strains that produce various carotenoids can be constructed by expression of enzymes for carotenoid synthesis (26). Upon co-expression of the appropriate CCD, the bacteria lose their colour due to cleavage of the carotenoids to colourless products (4,6,27). This technique was employed here to further explore the specificity of inhibitors, and to test their activity in vivo. The level of carotenoid in each CCD-expressing strain was compared to the level of the carotenoid in a control strain producing β-carotene but lacking any CCD gene. The difference in the carotenoid levels gave a measure of CCD activity, and inhibition of this activity was measured by addition of inhibitors to the growing medium.
The inhibitors were tested against four β-carotene-producing E. coli strains (supplemental Table S1). Three of the strains expressed highly divergent CCDs that cleave at the 9,10 position: AtCCD7 from Arabidopsis (21) and MmBCO2 from mouse (6) which both cleave at a single site (9,10 or 9′,10′ but not both), and the tomato enzyme LeCCD1a (44) which cleaves at both sites in the same substrate molecule (9,10/9′,10′ activity). The fourth strain expressed another mouse CCD, MmBCO1 (47), which cleaves centrally at 15,15′. […]

`COc1ccc(C(=O)N(O)Cc2ccccc2)cc1` [Compound F1, N-benzyl-4-methoxybenzoyl hydroxamic acid] was tested, and the “inhibition of LeNCED1 in vitro (in words)” value [1] was “little or no inhibition of LeNCED1; also recorded: no inhibition of LeNCED 1 was detected” and the “relative inhibition of LeCCD1a in E. coli (in words)” value (shortened to “relative inhibition of LeCCD1a”) [2] was “good activity against LeCCD1a; also recorded: high inhibitory activity”.
With `COc1ccc(C(=O)N(O)Cc2ccccc2)cc1OC` [Compound F3, N-benzyl-3,4-dimethoxybenzoyl hydroxamic acid] the “LeNCED1 (11,12) Inhibition @ 100 μM (%)” value ([1]; 100 μM inhibitor, E. coli cell extract with recombinant CCD) was 2% and the “relative inhibition of LeCCD1a” value [2] was “virtually none”.
For `COc1ccc(C(=O)N(O)Cc2ccc(F)cc2)cc1` [Compound F2, N-(4-fluorobenzyl)-4-methoxybenzoyl hydroxamic acid], the “inhibition of LeNCED1 in vitro (in words)” value [1] was “little or no inhibition of LeNCED1” and the “relative inhibition of LeCCD1a” value [2] was “good activity against LeCCD1a; also recorded: high inhibitory activity”.
